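Cells were grown in 96-well plates and exposed to each compound for 48 hours at five concentrations; endpoints were interpolated linearly between bracketing concentrations, or set to the highest concentration if not reached. Here, GI50 denotes the concentration required for 50% inhibition of growth. TGI is the concentration that stops growth completely.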
Key:
Assay in all cases: NCI-60 cell line screen, 48 h
786-0 renal = system: 786-0 renal
BT-549 breast = system: BT-549 breast
HL-60(TB) leukemia = system: HL-60(TB) leukemia
HOP-62 NSCLC = system: HOP-62 NSCLC
M14 melanoma = system: M14 melanoma
NCI-H522 lung = system: NCI-H522 lung
RPMI-8226 leukemia = system: RPMI-8226 leukemia
HCC-2998 colon = system: HCC-2998 colon

SMILES	TGI (786-0 renal) [µM]	TGI (BT-549 breast) [µM]	TGI (HL-60(TB) leukemia) [µM]	TGI (HOP-62 NSCLC) [µM]	TGI (M14 melanoma) [µM]	TGI (NCI-H522 lung) [µM]	TGI (RPMI-8226 leukemia) [µM]	GI50 (786-0 renal) [nM]	GI50 (BT-549 breast) [nM]	GI50 (HCC-2998 colon) [nM]	TGI (HCC-2998 colon) [µM]	GI50 (HL-60(TB) leukemia) [µM]	GI50 (HOP-62 NSCLC) [µM]	GI50 (M14 melanoma) [nM]	GI50 (NCI-H522 lung) [µM]	GI50 (RPMI-8226 leukemia) [nM]
CC1(C)OC2C(=O)C=C(COCc3ccccc3)C2O1 (stereo unspecified)	> 100	39.8	77.1	79	92.9	38	> 100									
CCCCn1c(=O)c2c(nc3n2CCCN3CCc2ccc(OCC(=O)NCCN(CC)CC)cc2)n(CCCC)c1=O	2	8.85	15.6	14.7	1.93	16.7	2.9	912	2550	2930	9.73	5.97	5.75	961	7.5	1130
COC12c3ccccc3-c3ccccc3C1[C@H]1C(=O)OC(=O)[C@H]12 (stereo partly specified)	> 10		> 10	> 10	> 10	> 10	> 10				> 10					
COc1cc(/C=C/[N+](=O)[O-])cc(Br)c1OC	3.54	6.62	> 100	10.1	3.74	2.83	6.64	1950	2770	1710	3.15	1.62	3.32	1780	0.816	2590
CCCCCn1sc(=O)n(Cc2ccc(CNC(=O)OCc3ccc4cccc(O)c4n3)cc2)c1=O	2.89	3.65	> 100	14.9	3.12	2.74	11.2	1170	1440	2090	4.52	2.88	2.73	1330	1.07	1560
C[C@@H]1O[C@@H](O[C@H]2CC[C@@]3(C)[C@H](CCC4[C@@H]3C(O)C[C@]3(C)[C@@H](c5ccc(=O)oc5)CC[C@]43O)C2)[C@H](O)[C@H](O)[C@H]1O (stereo partly specified)	0.0169	0.00448	0.00768	0.0057	0.0148	0.0035	0.0278	4.09	< 3.25	7.5	0.0168	0.0049	0.00389	6.09	< 0.00325	7.92
COc1ccc(-c2cc(=O)c3c(OC)c(OC)c(OC)c(OC)c3o2)cc1	> 100	> 100	> 100	> 100	> 100	66.5	> 100				> 100					
COc1ccc(/C=N/NC(=O)Cn2c(-c3ccc(S(C)(=O)=O)cc3)nc3cc(Cl)ccc32)cc1	> 50	48.5	7.3	> 50	> 50	1.7	11.4	1660	2740	1850	12.5	0.446	1.42	505	0.291	1430
COC(=O)c1nc(-c2ccccc2)oc1S(=O)(=O)n1nc(C)cc1N	25.6	23.2	12.5	84.2	20	4.06	23.4	12500	10800	18200	32.2	3.02	27.9	5660	2.06	5390
O=C(Nc1cccc(Nc2ncc(Br)c(NCCc3cnc[nH]3)n2)c1)N1CCCC1	32.6	13	24.2	14.7	21.8	27.6	19.5	9360	2040	9110	24.3	3.47	2.35	6230	11.5	3900
CC(=O)Oc1ccccc1C(=O)/C=C/c1cccc([N+](=O)[O-])c1	3.6	5.41	9.51	7.8	14	36.3	16.1	1830	2280	2300	4.97	3.26	2.5	3930	15.3	3180
Cc1ccc(NC(=O)c2ccccc2C(=O)O)cc1C	> 100	> 100		> 100	> 100	> 100	> 100									
CCN1C(=O)N(CC)C2C1NN=c1s/c(=C3\C(=O)N(CCc4ccccc4)c4ccccc43)c(=O)n12 (stereo unspecified)	13.5	4.97	1.56	9.97	12.5	3.95		1040	1490	1150	> 25	0.538	0.697	478	0.337	608
CCN(Cc1ccc(Cl)s1)c1ccc(CO)c(Cl)c1	21.2	24.8	26.2	18.4	34.3	37	24.5	2990	8190	5810	28.6	3.11	0.746	10300	15.2	1410
Cc1c(C2=C(c3cn(C)c4ccccc34)C(=O)NC2=O)c2ccccc2n1C	> 25	> 25	> 25	> 25	> 25	> 25	> 25	3560	2090	24900	> 25	0.962	2.72	1500	0.969	> 13800
COc1cc2c(c(OC)c1OC)-c1ccc(SC)c(=O)cc1[C@@H](NC1OC(CO)C(O)C(O)C1O)CC2 (stereo partly specified)	> 100	> 100	0.0666	> 100	> 100		> 100	57.5	67.9	36.8	> 100	0.0227		31.1		44.4
N#CN1CC[C@H](C(=O)Nc2ncc(-c3ccncc3)s2)C1	2.33	0.188	< 0.028	3.92	2.1	0.0499	1.27	41.5	< 11.6	84.4	11	< 0.0171	0.0689	37.9	< 0.0149	< 20.1
BrCc1ccc(CBr)cc1	8.63	3.8		9.68	> 47.3	52.2	13.3	2590		6400	15.3	7.6	4.23	11300	18.2	3100

SMILES	TGI (786-0 renal) [µM]	TGI (BT-549 breast) [µM]	TGI (HL-60(TB) leukemia) [µM]	TGI (HOP-62 NSCLC) [µM]	TGI (M14 melanoma) [µM]	TGI (NCI-H522 lung) [µM]	TGI (RPMI-8226 leukemia) [µM]	GI50 (786-0 renal) [nM]	GI50 (BT-549 breast) [nM]	GI50 (HCC-2998 colon) [nM]	TGI (HCC-2998 colon) [µM]	GI50 (HL-60(TB) leukemia) [µM]	GI50 (HOP-62 NSCLC) [µM]	GI50 (M14 melanoma) [nM]	GI50 (NCI-H522 lung) [µM]	GI50 (RPMI-8226 leukemia) [nM]
COc1ccc(C(=O)N2c3ccccc3Sc3ccccc32)c(OC)c1	> 100	> 100	18.5	> 100	> 100	> 100	29.9	480	659	1490	8.09	0.297	0.822	359	0.343	523
O=C(O)COc1c(Cl)cc(Cl)c2cccnc12	> 100	> 100	> 100	> 100	> 100	> 100	> 100									
CC1=CC(=O)C(O)C2(C)C1CC(O)C13COC4(C)C(OC(=O)C41)C(O)C23 (stereo unspecified)	27.4	43.4	> 100	36.6	15.4	30.5	> 100	5130	11000			4.24	6.12	4140	6.65	17300
O=c1[nH]cnc2c(C3NC(CO)C(O)C3O)c[nH]c12 (stereo unspecified)	> 100	> 100		> 100	> 100	> 100	> 100	> 100000	> 100000	> 100000	> 100		> 100	> 100000	> 100	> 100000
CN(CCCCCl)P(=O)(OCCS(=O)(=O)CC(NC(=O)CCC(N)C(=O)O)C(=O)NC(C(=O)O)c1ccccc1)OCC1OC(n2cc(F)c(=O)[nH]c2=O)CC1O (stereo unspecified)	2.62	> 94.7	31.3	6.99	2.85	> 57.4	1.48	15.5	15300			4.87	< 0.01	64.7	0.266	
c1ccc2c3c([nH]c2c1)C1CCCN1CC3 (stereo unspecified)	> 10		> 10	> 10	> 10	> 10	> 10				> 10					
CN(C)c1ccc(N=Nc2ccncc2)cc1	> 100	> 100	> 100	> 100	> 100		> 100				92.6					
O=C([CH-]C(=O)c1ccccc1)c1ccccc1.O=C([CH-]C(=O)c1ccccc1)c1ccccc1.[OH-].[OH-].[Ti+4]	> 100		> 100	> 100	> 100	69.7	> 100	47100		> 100000	> 100	> 100	27.1	36200	24.2	41300
N/N=C1\CC(=O)NC(=O)N1	> 100	> 100	> 100	> 100	> 100	> 100	> 100									
COc1ccc(OC)c(C2SCC(=O)N2NC(=O)C(O)c2ccccc2)c1 (stereo unspecified)	> 100	> 100		> 100	> 100	> 100	> 100	> 100000	> 100000	> 100000	> 100		> 100	> 100000	> 100	> 100000
COc1ccc2c(c1OC)C(=O)OC2C1c2c(c([N+](=O)[O-])c3c(c2OC)OCO3)CCN1C (stereo unspecified)	> 100	> 100		> 100	> 100	> 100		> 100000	> 100000	27800	> 100		> 100	> 100000	> 100	
Cc1ccc(C2=Nc3ccccc3SC(c3cccc([N+](=O)[O-])c3)C2)cc1 (stereo unspecified)	27	83.6		> 100	> 100	64.6	5.19									
CCOc1nc(N)nc(C)c1N=Nc1ccc(Cl)cc1	> 100	> 100	> 100	> 100	> 100	> 100	88.4									
CN1CCN(CC(O)COc2c(Br)c(Br)c(Br)c3c2OC(C)(C)C3)CC1 (stereo unspecified)	14.6	26.4	18	25.1		28.5	4.44	3080	10600			4.57	4.26		6.15	1800
O=C(Oc1cccnc1)c1ccsc1Nc1ccnc(C(F)(F)F)c1	> 100	> 100		> 100	> 100	8.36	51.8	53000	5360	11000	24		25	9390	2.36	6450
Nc1ccc(-c2nc3ccccc3[nH]2)c2ccccc12	> 41.4	22.5		> 100	17.6	17.1	> 37	4020	2390	2460	10.5		6.16	2730	3.14	2640
COC1O[C@@H]2C[C@H]3C(C)(C)CCC[C@]3(C)C3=CCCC1[C@@]32C (stereo partly specified)	> 100	> 100		> 100	> 100	> 100	> 100	> 100000	> 100000				> 100	> 100000	> 100	> 100000
